Columns and labels:
Assay type in all cases: in vivo, rat
Zucker fa/fa rats [1] = assay: Cardiac hemodynamics (left ventricular pressure-volume curves) in Zucker fa/fa rats
Procedure: (§1) Experiments were performed on 12-week-old Male Zucker fa/fa rats or lean control rats purchased from Ch. River (US).
(§2) Animals were kept 2 per cage in standard laboratory conditions, and drugs were administered by gavage (at 9 am and at 6 pm) at the dose of 150 mg/kg bid and administered for 9 or 90 days. Imeglimin's effects on cardiac dysfunction were assessed. • First experiment protocol:
(§3) The Zucker fa/fa animals were randomized on their body weight in two groups and three groups were then constituted: • Lean rats (Treated with vehicle n=12) • Control Zucker fa/fa rats (Treated with vehicle n=18) • Imeglimin treated Zucker fa/fa rats at the dose of 150 mg/kg bid (n=18)
After a short-term treatment (9 days), cardiac function (echocardiography and MRI) and cardiac hemodynamics were assessed (1 h after the last treatment) on all rats. • Second experiment protocol:
(§4) The Zucker fa/fa animals were randomized on their body weight in two groups and three groups were then constituted: • Lean rats (Treated with vehicle n=18) • Control Zucker fa/fa rats (Treated with vehicle n=24) • Imeglimin treated Zucker fa/fa rats at the dose of 150 mg/kg bid (n=24)
(§5) After a long-term treatment (90 days), cardiac function (echocardiography and MRI) and cardiac hemodynamics were assessed (1 h after the last treatment) on all rats.
The imeglimin suspension was prepared at the concentrations used in the study (150 mg/kg) and homogenized in 10 mL of the Methylcellulose solution. The drug suspension was prepared on the day of administration.
Left ventricle function was assessed using left pressure volume curves after 9 or 90 days of treatment, as previously described (Fang Y et al, J Mol Cell Cardiol., 2011, 51:168-176; Fang Y H et al, Journal of Cardiovascular Pharmacology, 2012, 59: 260-267). In brief, a 2F miniaturized combined conductance catheter-micromanometer (model SPR-819, Millar Instruments) connected to a pressure-conductance unit (MPCU-200, Millar) was advanced retrograde via the carotid artery into the left ventricle. This catheter has a micro-manometer surrounded by 4 platinum electrodes; the two outermost electrodes generate a current of 0.1 mA at a frequency of 20 kHz, which is sensed by the two innermost electrodes. Pressure-Volume (PV) loops were recorded at baseline and during loading by gently occluding the abdominal aorta with a cotton swab. Data were stored and analysed by using Millar conductance data acquisition and analysis software. Finally, the following parameters were measured/calculated from the pressure-volume curves: • Left ventricular end-diastolic pressure; • Left ventricular end-systolic pressure; • Left ventricular relaxation constant Tau; • Left ventricular end-diastolic pressure-volume relation; and • Left ventricular end-systolic pressure-volume relation. Coronary Endothelial Function

Zucker fa/fa rats [2] = assay: Echocardiography, cardiac output in Zucker fa/fa rats; conditions: 150 mg/kg bid, 90 days, vs untreated Zucker fa/fa
Procedure: as §1, §2, §3
(§6) After a short-term treatment (9 days), cardiac function (echocardiography and MRI) and cardiac hemodynamics were assessed (1 h after the last treatment) on all rats. • Second experiment protocol: […]
as §5
Studies were performed on rats after 9 and 90 days of treatment. […] LV diameters were measured by the American Society of Echocardiography leading-edge method from at least 3 consecutive cardiac cycles. […]

Zucker fa/fa rats [3] = assay: Myocardial perfusion by MRI (arterial spin labeling) in Zucker fa/fa rats; conditions: 150 mg/kg bid, vs untreated Zucker fa/fa
Procedure: as §1, §2, §3, §6, §5
The ECG signal was monitored by placing two subcutaneous electrodes on each side of the rat at chest level. […] Upon subtraction of an image acquired without spin labelling, the background signal from static spins is removed and the difference image can be used to quantify perfusion. […]

[4] = test system: septal coronary artery of Zucker fa/fa rats; assay: Coronary endothelial function: acetylcholine-induced relaxation of septal coronary artery from treated Zucker fa/fa rats; conditions: 150 mg/kg bid, administration for 9 and 90 days, serotonin-precontracted segments
Procedure: as §1, §2
Coronary endothelial function was assessed after 9 or 90 days of treatment, as described previously (Fang Y H et al, Journal of Cardiovascular Pharmacology, 2012, 59: 260-267; Mulder et al., Eur Heart J., 2008, 29:2171-2179). In brief, at the end of the left ventricular function assessment, the heart was removed and immediately placed in cold oxygenated Krebs buffer. A 1.5- to 2-mm-long segment of arteries were carefully dissected and mounted in a small vessel myograph. Normalization procedure was performed after an equilibration period. Segments with an internal diameter<170 μm was excluded to avoid mechanical endothelial injury and unspecific dysfunction. Concentration-response curves to acetylcholine (10^−8 to 3×10^−5 mol/L) were performed in serotonin-precontracted segments (10^−5 mol/L).

Zucker fa/fa rats [5] = assay: Cardiac histology: LV collagen density (Sirius red) in Zucker fa/fa rats; conditions: 150 mg/kg bid, D90, mean ± SEM
Procedure: as §1, §2, §4
At the end of the treatment period, the heart was taken out. After fixation, the left ventricle was cut in 3 sections of identical thickness. The sections of the heart were dehydrated and embedded in paraffin. 3 μm-thick sections were cut from each block and mounted on glass slides. Sections were stained with Sirius red for the determination of collagen. Slides were enlarged 500 times using a microscope connected to an image analysis system, as previously described (Mulder et al., J. Am. Coll. Cardiol., 1997). Collagen density was calculated in the left ventricle as the surface occupied by collagen divided by the surface of the image.

Zucker fa/fa rats [6] = assay: Left ventricular oxidative stress: ROS production in LV homogenates by EPR, Zucker fa/fa rats; conditions: 150 mg/kg bid
Procedure: as §1, §2
Left ventricular reactive oxygen species production level were evaluated in left ventricular homogenates (obtained after 9 or 90 days of treatment) by electron paramagnetic resonance spectroscopy (EPR) using the spin probe 1-hydroxy-3-methoxycarbonyl-2,2,5,5-tetramethylpyrrolidine (CMH, Noxygen, Germany), as previously described (Mulder P, Eur Heart J. 2008; 29:2171-2179). Stock solution of CMH (50 mM) were prepared in Krebs-HEPES buffer (0.1 M NaCl, 5 mM KCl, 2.5 mM CaCl2, 1.2 mM MgSO4, 25 mM NaHCO3, 1 mM KH2PO4, 5.6 mM D(+)-Glucose, 20 mM Na-HEPES, pH 7.4) containing 25 μM deferoxamine and 5 μM diethyldithiocarbamate. […] The oxidation of CMH into the stable 3-methoxycarbonyl-proxyl (CM•), driven mainly by superoxide and peroxynitrite reactions, was recorded using a MiniScope MS-200 X-band spectrometer (Magnettech, Germany). […] Intensity of the spectra was measured from the height of the central line. CM• production was quantified using CP° standard and expressed in μmol of CM• per mg of total proteins.

[7] = 150 mg/kg bid, 90 days, vs untreated Zucker fa/fa

## CC1N=C(N)NC(N(C)C)=N1 (single isomer, unassigned; (+)) [Imeglimin, (+)-2-amino-3,6-dihydro-4-dimethylamino-6-methyl-1,3,5-triazine]
Zucker fa/fa rats [1]; 150 mg/kg bid by gavage, 9 days of treatment
  reduction of the left ventricular end-diastolic pressure-volume relation: about 26%
Zucker fa/fa rats [1]; 150 mg/kg bid by gavage, 90 days of treatment
  reduction of the left ventricular end-diastolic pressure-volume relation: ~58%
Zucker fa/fa rats [1]; 150 mg/kg bid, 9 days, vs untreated Zucker fa/fa
  reduction of the left ventricular end-diastolic pressure-volume relation: already significant
Zucker fa/fa rats [1]; 150 mg/kg bid, 90 days of treatment
  LV compliance increase: about 50%
Zucker fa/fa rats [1]; [7]
  LV end-diastolic pressure (FIG. 1A): significant reduction
  LV end-diastolic pressure volume relation (FIG. 1C): significant reduction
  LV relaxation constant Tau (FIG. 1B): significant reduction
Zucker fa/fa rats [2]
  cardiac output (FIG. 2A): increased
Zucker fa/fa rats [3]; 9 days
  increase in the myocardial perfusion: already significant
Zucker fa/fa rats [3]; 90 days
  myocardial perfusion (FIG. 2B): increased
[4]
  acetylcholine-induced relaxation of septal coronary artery (FIG. 3): prevented the impairment
Zucker fa/fa rats [5]
  LV collagen density: 2.52 ± 0.20 %
Zucker fa/fa rats [6]; D9, mean ± SEM
  LV ROS production: 27.61 ± 1.29 AU · μg^−1 · h^−1
Zucker fa/fa rats [6]; D90, mean ± SEM
  LV ROS production: 34.02 ± 1.49 AU · μg^−1 · h^−1
